Measured values as given in the NIST ThermoML archive (doi:10.1021/acs.jced.9b00377).

How the values were obtained:
[1] = for viscosity: Falling or rolling sphere viscometry; for speed of sound: Single path-length method
[2] = refractive index (Na D-line) (dimensionless); conditions: 100 kPa, Liquid, Standard Abbe refractometry

CCCC(=O)[O-].CN(C)C(=[NH2+])N(C)C [1,1,3,3-tetramethylguanidinium butanoate]
[1], 100 kPa, Liquid
Conditions | speed of sound [m/s] | viscosity [mPa·s]
293.15 K | 1593.6 | 2480
298.15 K | 1576.5 | 1638
303.15 K | 1559.4 | 1049
308.15 K | 1542.3 | 694.1
313.15 K | 1525.1 | 453.1
318.15 K | 1508 | 318.2
323.15 K | 1490.9 | 223.5
328.15 K | 1475.5 | 158.5
333.15 K | 1458.4 | 114
338.15 K | 1441.3 | 88.1
343.15 K | 1424.1 | 65.7

[1], 100 kPa, Liquid, Vibrating tube method
Conditions | mass density [kg/m3]
293.15 K | 1032.2
298.15 K | 1028.74
303.15 K | 1025.27
308.15 K | 1021.74
313.15 K | 1018.24
318.15 K | 1014.77
323.15 K | 1011.3
328.15 K | 1007.79
333.15 K | 1004.24
338.15 K | 1000.67
343.15 K | 997.07

[2]
Conditions | refractive index
293.15 K | 1.4823
298.15 K | 1.4809
303.15 K | 1.4794
308.15 K | 1.4781
313.15 K | 1.4766
318.15 K | 1.4753
323.15 K | 1.474
328.15 K | 1.4727
333.15 K | 1.4716
338.15 K | 1.4704
343.15 K | 1.4693

CCCCCCC(=O)[O-].CN(C)C(=[NH2+])N(C)C [1,1,3,3-tetramethylguanidinium heptanoate]
[1], 100 kPa, Liquid
Conditions | speed of sound [m/s] | viscosity [mPa·s]
293.15 K | 1535.5 | 1827
298.15 K | 1517.9 | 1144
303.15 K | 1500.2 | 740.8
308.15 K | 1482.5 | 493.9
313.15 K | 1464.8 | 336.9
318.15 K | 1447.2 | 242.3
323.15 K | 1429.5 | 172.9
328.15 K | 1413.6 | 126.7
333.15 K | 1395.9 | 94.4
338.15 K | 1378.2 | 71.6
343.15 K | 1360.6 | 55.8

[1], 100 kPa, Liquid, Vibrating tube method
Conditions | mass density [kg/m3]
293.15 K | 986.16
298.15 K | 982.69
303.15 K | 979.2
308.15 K | 975.61
313.15 K | 972.09
318.15 K | 968.56
323.15 K | 965
328.15 K | 961.39
333.15 K | 957.74
338.15 K | 954.06
343.15 K | 950.35

[2]
Conditions | refractive index
293.15 K | 1.4792
298.15 K | 1.4776
303.15 K | 1.4759
308.15 K | 1.474
313.15 K | 1.4722
318.15 K | 1.4707
323.15 K | 1.4689
328.15 K | 1.4674
333.15 K | 1.4656
338.15 K | 1.464
343.15 K | 1.4628

CCCCCC(=O)[O-].CN(C)C(=[NH2+])N(C)C [1,1,3,3-tetramethylguanidinium hexanoate]
[1], 100 kPa, Liquid
Conditions | speed of sound [m/s] | viscosity [mPa·s]
293.15 K | 1539 | 1534
298.15 K | 1522.2 | 1001
303.15 K | 1505.5 | 657.8
308.15 K | 1488.8 | 442.1
313.15 K | 1472.1 | 309.8
318.15 K | 1455.4 | 221.1
323.15 K | 1438.7 | 159.5
328.15 K | 1423.6 | 118.5
333.15 K | 1406.9 | 89.4
338.15 K | 1390.2 | 69.3
343.15 K | 1373.5 | 54

[1], 100 kPa, Liquid, Vibrating tube method
Conditions | mass density [kg/m3]
293.15 K | 997.51
298.15 K | 994.1
303.15 K | 990.61
308.15 K | 987.16
313.15 K | 983.73
318.15 K | 980.29
323.15 K | 976.82
328.15 K | 973.32
333.15 K | 969.78
338.15 K | 966.22
343.15 K | 962.63

[2]
Conditions | refractive index
293.15 K | 1.4701
298.15 K | 1.4684
303.15 K | 1.466
308.15 K | 1.4638
313.15 K | 1.4619
318.15 K | 1.4601
323.15 K | 1.458
328.15 K | 1.4563
333.15 K | 1.4544
338.15 K | 1.4528
343.15 K | 1.4511

CN(C)C(=[NH2+])N(C)C.O=C([O-])O [1,1,3,3-tetramethylguanidinium hydrogen carbonate]
Conditions | mass density [kg/m3]
[1], 173 K, 101.33 kPa, Crystal, X-ray diffraction | 1213

CCCCCCCC(=O)[O-].CN(C)C(=[NH2+])N(C)C [1,1,3,3-tetramethylguanidinium octanoate]
[1], 100 kPa, Liquid
Conditions | speed of sound [m/s] | viscosity [mPa·s]
293.15 K | 1497.3 | 1093
298.15 K | 1481.3 | 737.2
303.15 K | 1465.4 | 506.8
308.15 K | 1449.4 | 347.6
313.15 K | 1433.5 | 249.6
318.15 K | 1417.5 | 186.8
323.15 K | 1401.6 | 138.8
328.15 K | 1387.2 | 105.7
333.15 K | 1371.3 | 81.2
338.15 K | 1355.3 | 65
343.15 K | 1339.4 | 52.5

[1], 100 kPa, Liquid, Vibrating tube method
Conditions | mass density [kg/m3]
293.15 K | 969.06
298.15 K | 965.65
303.15 K | 962.28
308.15 K | 958.95
313.15 K | 955.63
318.15 K | 952.3
323.15 K | 948.95
328.15 K | 945.59
333.15 K | 942.23
338.15 K | 938.85
343.15 K | 935.46

[2]
Conditions | refractive index
293.15 K | 1.4678
298.15 K | 1.4657
303.15 K | 1.4631
308.15 K | 1.4612
313.15 K | 1.4589
318.15 K | 1.4565
323.15 K | 1.4544
328.15 K | 1.4523
333.15 K | 1.4501
338.15 K | 1.4482
343.15 K | 1.4463

CCCCC(=O)[O-].CN(C)C(=[NH2+])N(C)C [1,1,3,3-tetramethylguanidinium pentanoate]
[1], 100 kPa, Liquid
Conditions | speed of sound [m/s] | viscosity [mPa·s]
293.15 K | 1540.6 | 1241
298.15 K | 1524.7 | 797.9
303.15 K | 1508.7 | 561.1
308.15 K | 1492.8 | 382.2
313.15 K | 1476.8 | 268.2
318.15 K | 1460.8 | 199.7
323.15 K | 1444.9 | 147.7
328.15 K | 1430.5 | 111.4
333.15 K | 1414.6 | 85.2
338.15 K | 1398.6 | 67.7
343.15 K | 1382.7 | 54

[1], 100 kPa, Liquid, Vibrating tube method
Conditions | mass density [kg/m3]
293.15 K | 1010.3
298.15 K | 1006.9
303.15 K | 1003.4
308.15 K | 1000
313.15 K | 996.64
318.15 K | 993.25
323.15 K | 989.84
328.15 K | 986.42
333.15 K | 982.98
338.15 K | 979.53
343.15 K | 976.07

[2]
Conditions | refractive index
293.15 K | 1.4776
298.15 K | 1.4758
303.15 K | 1.4736
308.15 K | 1.4718
313.15 K | 1.4699
318.15 K | 1.4681
323.15 K | 1.4664
328.15 K | 1.4648
333.15 K | 1.4633
338.15 K | 1.4615
343.15 K | 1.46
